Data published in paper PMC11491487 (Nature Communications, 2024).
Several values for one entry are separate records, joined by “and”; a condition that tells them apart may be missing. Identical values can stand only once.

Legend:
rRyR1 = rRyR1 (Oryctolagus cuniculus, UniProt P11716); experiment: time-lapse [Ca2+]ER fluorescence assay, HEK293 cells; assay type: cell-based, rabbit
Sf RyR = Sf RyR (Spodoptera frugiperda, UniProt A0A4P8L6R5); experiment: as above; assay type: cell-based
chiRyR [1] = biological target: T1, chiRyR (Oryctolagus cuniculus, UniProt P11716, C4657I/F4564Y/L4792S/R4563K); experiment: cell-based; design: species or system rabbit
rRyR1 R4563K = biological target: T2, rRyR1 R4563K (Oryctolagus cuniculus, UniProt P11716, R4563K); experiment: time-lapse [Ca2+]ER fluorescence assay, HEK293 cells; assay type: cell-based, rabbit; settings: n = 3
T2 construct: expressed in transfected cells

rRyR1 C4657I = biological target: T3, rRyR1 C4657I (Oryctolagus cuniculus, UniProt P11716, C4657I); experiment: as above; assay type: cell-based, rabbit; settings: n = 3
T3 construct: expressed in transfected cells

rRyR1 L4792S = biological target: T4, rRyR1 L4792S (Oryctolagus cuniculus, UniProt P11716, L4792S); experiment: as above; assay type: cell-based, rabbit; settings: n = 3
T4 construct: expressed in transfected cells

chiRyR-I4657M/G4819E [2] = biological target: T5, chiRyR-I4657M/G4819E (Oryctolagus cuniculus, UniProt P11716, C4657M/F4564Y/G4819E/L4792S/R4563K); experiment: cell-based; design: species or system rabbit
Sf RyR_I4734M/G4891E = Sf RyR_I4734M/G4891E (Spodoptera frugiperda, UniProt A0A4P8L6R5, G4891E/I4734M); experiment: cell-based
chiRyR [3] = biological target: T1, chiRyR; experiment: biochemical; assay type: biochemical, rabbit
chiRyR-I4657M/G4819E [4] = biological target: T5, chiRyR-I4657M/G4819E; experiment: biochemical; assay type: biochemical, rabbit
[5] = tested on: Drosophila melanogaster RyR M4758I; experiment: Bioassay of gene-edited Drosophila melanogaster (feeding, mortality after 24 h); assay type: in vivo; settings: 24 h feeding, n = 30
[6] = tested on: Drosophila melanogaster RyR G4915E; experiment: as above; assay type: in vivo; design: key to LD50: AA.: All alive
[7] = tested on: diamondback moth (Plutella xylostella); settings: in vivo; cited from earlier work
Spodoptera frugiperda = tested on: Spodoptera frugiperda; design: method as in PMID 31157506; settings: in vivo; cited from earlier work

Cc1cc(C(F)(C(F)(F)F)C(F)(F)F)ccc1NC(=O)c1cccc(I)c1C(=O)NC(C)(C)CS(C)(=O)=O [FLU, flubendiamide]
EC50 (rRyR1): 4500 nM | F/F0 (rRyR1; FLU 0.01 uM): 0.9514 and 0.951 and 0.9574 | F/F0 (rRyR1; FLU 0.3 uM): 0.9294 and 0.929 and 0.9697 | F/F0 (rRyR1; FLU 1 uM): 0.9591 and 0.9606 and 0.9686 | F/F0 (rRyR1; FLU 3 uM): 0.9637 and 0.9616 and 0.9316 | F/F0 (rRyR1; FLU 10 uM): 0.9738 and 0.9803 and 0.9687 | F/F0 (rRyR1; FLU 30 uM): 0.9272 and 0.9023 and 0.8951 | F/F0 (rRyR1; FLU 100 uM): 0.8351 and 0.825 and 0.8009 | F/F0 (rRyR1; FLU 150 uM): 0.7879 and 0.7717 and 0.7578 | F/F0 (Sf RyR; FLU 1e-5 uM): 0.9517 and 0.959 and 0.9803 and 0.9606 and 0.9626 and 0.9095 | F/F0 (Sf RyR; FLU 0.0001 uM): 0.9669 and 0.9979 and 0.9587 | F/F0 (Sf RyR; FLU 0.001 uM): 0.9934 and 1.004 and 1.015 and 1.0081 and 0.9724 and 0.9466 | F/F0 (Sf RyR; FLU 0.005 uM): 0.9953 and 0.9503 and 0.9362 | F/F0 (Sf RyR; FLU 0.01 uM): 0.964 and 0.9628 and 0.9439 and 0.9365 and 0.909 and 0.8287 | F/F0 (Sf RyR; FLU 0.1 uM): 0.6874 and 0.7084 and 0.7834 and 0.606 and 0.5494 and 0.4561 | F/F0 (Sf RyR; FLU 0.3 uM): 0.3286 and 0.3161 and 0.2878 | F/F0 (Sf RyR; FLU 0.5 uM): 0.3948 and 0.4026 and 0.4259 and 0.3563 and 0.3618 and 0.3874 | F/F0 (Sf RyR; FLU 1 uM): 0.4531 and 0.5278 and 0.593 and 0.346 and 0.3891 and 0.3741 | F/F0 (Sf RyR; FLU 3 uM): 0.282 and 0.3083 and 0.312 | F/F0 (Sf RyR; FLU 30 uM): 0.2907 and 0.2708 and 0.2786 | F/F0 (Sf RyR; FLU 50 uM): 0.5223 and 0.4644 and 0.4746 and 0.282 and 0.2723 and 0.2725 | F/F0 (Sf RyR; FLU 100 uM): 0.3008 and 0.2711 and 0.266 | F/F0 (Sf RyR; FLU 150 uM): 0.2772 and 0.2807 and 0.3032 | F/F0 (Sf RyR; FLU 200 uM): 0.2827 and 0.3427 and 0.3531 | EC50 (Sf RyR; n = 3, read-out: EC50): 59.3 nM | EC50 (chiRyR [1]): 25.1 nM | F/F0 (chiRyR [1]; FLU 1e-5 uM): 0.9549 and 0.9506 and 0.9676 | F/F0 (chiRyR [1]; FLU 0.0001 uM): 0.9787 and 0.9683 and 0.9464 | F/F0 (chiRyR [1]; FLU 0.01 uM): 0.8614 and 0.8526 and 0.8697 | F/F0 (chiRyR [1]; FLU 0.1 uM): 0.4361 and 0.3436 | F/F0 (chiRyR [1]; FLU 1 uM): 0.3549 and 0.3294 and 0.3747 | F/F0 (chiRyR [1]; FLU 10 uM): 0.336 and 0.3416 and 0.3434 | F/F0 (chiRyR [1]; FLU 50 uM): 0.3259 and 0.3223 and 0.3318 | F/F0 (chiRyR [1]; FLU 100 uM): 0.36 and 0.3376 and 0.3503 | EC50 (rRyR1 R4563K): 3900 nM | EC50 (rRyR1 C4657I): 8900 nM | EC50 (rRyR1 L4792S): 209 nM | F/F0 (chiRyR-I4657M/G4819E [2]; FLU 1e-5 uM): 0.9575 and 0.97 and 0.9884 | F/F0 (chiRyR-I4657M/G4819E [2]; FLU 0.1 uM): 0.9705 and 0.977 and 1.0074 | F/F0 (chiRyR-I4657M/G4819E [2]; FLU 0.5 uM): 0.9668 and 0.9819 and 0.9464 | F/F0 (chiRyR-I4657M/G4819E [2]; FLU 1 uM): 0.9823 and 0.9988 and 0.9262 | F/F0 (chiRyR-I4657M/G4819E [2]; FLU 10 uM): 0.9522 and 0.929 and 0.9507 | F/F0 (chiRyR-I4657M/G4819E [2]; FLU 50 uM): 0.9714 and 0.9397 and 0.895 | F/F0 (chiRyR-I4657M/G4819E [2]; FLU 100 uM): 0.9721 and 0.9871 and 0.9807 | F/F0 (chiRyR-I4657M/G4819E [2]; FLU 200 uM): 0.9521 and 0.9361 and 0.9719 | effect of the double mutation on activity (chiRyR-I4657M/G4819E [2]; time-lapse assay): almost completely abolished | EC50 (Sf RyR_I4734M/G4891E): > 300000 nM | F/F0 (Sf RyR_I4734M/G4891E; FLU 0.1 uM): 0.9354 and 1.022 and 1.001 | F/F0 (Sf RyR_I4734M/G4891E; FLU 1 uM): 1.08 and 0.9898 and 1.013 | F/F0 (Sf RyR_I4734M/G4891E; FLU 10 uM): 0.9775 and 0.9916 and 0.9858 | F/F0 (Sf RyR_I4734M/G4891E; FLU 50 uM): 0.9682 and 0.9415 and 0.9568 | F/F0 (Sf RyR_I4734M/G4891E; FLU 100 uM): 0.9687 and 0.9673 and 0.985 | F/F0 (Sf RyR_I4734M/G4891E; FLU 150 uM): 1.01 and 0.9761 and 1.006 | F/F0 (Sf RyR_I4734M/G4891E; FLU 200 uM): 1.016 and 0.9681 and 1.012 | EC50 (chiRyR [3]): 4 ± 1.4 nM | [3H]ryanodine binding (B/Bmax) (chiRyR [3]; FLU 0.010 uM): 0.258 and 0.168 and 0.293 and 0.246 | [3H]ryanodine binding (B/Bmax) (chiRyR [3]; FLU 0.100 uM): 0.203 and 0.262 and 0.293 and 0.332 | [3H]ryanodine binding (B/Bmax) (chiRyR [3]; FLU 1.000 uM): 0.230 and 0.187 and 0.324 | [3H]ryanodine binding (B/Bmax) (chiRyR [3]; FLU 10.000 uM): 0.281 and 0.305 and 0.277 and 0.254 | [3H]ryanodine binding (B/Bmax) (chiRyR [3]; FLU 100.000 uM): 0.242 and 0.340 and 0.234 and 0.262 | [3H]ryanodine binding (B/Bmax) (chiRyR-I4657M/G4819E [4]; FLU 10.000 uM): 0.017 and 0.021 and 0.023 and 0.012 | effect of the double mutation on activity (chiRyR-I4657M/G4819E [4]; [3H]ryanodine binding assay): almost completely abolished | LD50 [5]: 10.4 µM | LD50 ([6]; 24 h feeding, n = 30): AA. | lethality ([6]; in vivo): can no longer kill | fold decrease in sensitivity [7]: > 200 fold | fold decreased sensitivity (Spodoptera frugiperda): 5,400 fold
